This note sets out measurements from patent publication US10919885B2, “Compounds and uses thereof” (Yumanity Therapeutics, Inc., priority 2018, dated 2021).

pIC50: −log10 of the molar value.

One experiment deals with human SCD1 (Homo sapiens (Human), UniProt O00767). Briefly: Yeast growth assay, strain expressing human SCD1 as the sole desaturase (reduced growth as surrogate for SCD inhibition). As to conditions: yeast with OLE1 deleted expressing human SCD1 from a plasmid; growth read as OD600 after 40 h at 30° C.; top drug concentration 33.3 μM. It is filed as cell-based. The method in brief:
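Yeast lacking OLE1 depend on plasmid-borne human SCD1 or SCD5 and are tested in SD-Ura medium without oleic/palmitoleic acid or Tween.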

The target in the next experiment is human SCD5 (Homo sapiens (Human), UniProt Q86SK9). Briefly: Yeast growth assay, strain expressing human SCD5 as the sole desaturase (reduced growth as surrogate for SCD inhibition). The class given is cell-based. As to conditions: yeast with OLE1 deleted expressing human SCD5 from a plasmid; growth read as OD600 after 40 h at 30° C.; top drug concentration 33.3 μM. On the procedure:
Strains expressing SCD1 or SCD5 as the sole desaturase, the human SCD1 and SCD5 genes were used to evaluate inhibition of SCD1/SCD5 using reduced growth as a surrogate for SCD inhibition. These yeast strains express human SCD1 or SCD5 from a plasmid harbored in a strain in which the yeast OLE1 gene is deleted.
All compound profiling experiments were performed using the same basic protocol. Yeast were cultured using standard techniques in complete synthetic media lacking uracil and containing yeast nitrogen base supplemented with 2% (w/v) glucose (SD-Ura) Starter cultures were inoculated in 3 mL SD-Ura media containing 0.01% tween and 0.2 mM palmitoleic and oleic acid. Cultures were incubated overnight in a 30° C. shaker incubator (225 rpm). Saturated morning cultures were centrifuged, washed in SD-Ura media lacking TWEEN-20 and fatty acids, and then diluted 1:20 in fresh SD-Ura media also lacking TWEEN-20 and fatty acids.
Compound administration was performed in two separate steps. First, 15 μL of SD-Ura was dispensed into clear 384-well assay plates using a MULTIDROP™ Combi reagent dispenser. […] The cultures described above were centrifuged and washed with media lacking TWEEN-20 or oleic and palmitoleic acids.
After yeast delivery, assay plates were incubated under humidified conditions at 30° C. for 40 h. Yeast growth was monitored by reading the OD600 of each well using a microplate reader (Perkin Elmer EnVision™).

Sequence of human SCD1 (O00767 whole entry): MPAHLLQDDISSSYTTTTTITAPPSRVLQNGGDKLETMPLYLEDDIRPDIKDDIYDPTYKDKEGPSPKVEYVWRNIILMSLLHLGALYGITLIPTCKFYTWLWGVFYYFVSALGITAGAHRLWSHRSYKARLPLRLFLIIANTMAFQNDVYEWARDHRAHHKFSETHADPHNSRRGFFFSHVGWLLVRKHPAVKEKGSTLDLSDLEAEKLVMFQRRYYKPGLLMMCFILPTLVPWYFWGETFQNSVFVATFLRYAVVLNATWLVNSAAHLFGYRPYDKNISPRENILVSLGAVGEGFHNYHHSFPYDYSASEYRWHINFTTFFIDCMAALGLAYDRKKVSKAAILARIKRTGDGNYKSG
Sequence of human SCD5 (Q86SK9 whole entry): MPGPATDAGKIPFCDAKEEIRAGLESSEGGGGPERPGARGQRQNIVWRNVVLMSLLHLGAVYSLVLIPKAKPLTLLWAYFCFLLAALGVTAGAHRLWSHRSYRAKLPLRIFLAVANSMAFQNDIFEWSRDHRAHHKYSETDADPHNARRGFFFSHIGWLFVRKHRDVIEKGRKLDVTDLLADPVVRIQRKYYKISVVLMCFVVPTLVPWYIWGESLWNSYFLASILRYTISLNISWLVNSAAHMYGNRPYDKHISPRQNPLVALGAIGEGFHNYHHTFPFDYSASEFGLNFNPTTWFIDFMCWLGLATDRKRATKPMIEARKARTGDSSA

Broadly, the pIC50 is the IC50 on a negative log10 scale, so that one unit is a factor of ten. Higher therefore signals a small IC50. For the compound `O=C(Nc1cn(Cc2ccccc2)nc1C(F)(F)F)c1cc(-c2ccccc2)on1` [Compound 82], the pIC50 on human SCD1 and against human SCD5 was less than 4.35 each time.
With `COc1ccncc1Cn1cc(NC(=O)c2cc(-c3ccccc3F)on2)cn1` [Compound 173], the pIC50 at human SCD1 and against human SCD5 was less than 4.35 each time.
For the compound `C[S+]([O-])CC(c1ccccc1)n1cc(NC(=O)c2cc(-c3ccccc3)on2)cn1` (centres unmarked) [Compound 78], the pIC50 against human SCD1 and against human SCD5 was less than 4.35 throughout.
As for `O=C(Nc1cnn(Cc2cccc(F)c2)c1)c1cc(-c2ncccn2)on1` [Compound 46], the figures for the negative logarithm of the IC50 (pIC50) against human SCD1 and at human SCD5 were 4.65 and less than 4.35, respectively.
For `O=C(Nc1cnn(Cc2cccc(F)c2)c1)c1cc(-c2ccncc2)on1` [Compound 56, N-(1-(3-fluorobenzyl)-1H-pyrazol-4-yl)-5-(pyridin-4-yl)isoxazole-3-carboxamide] the same measures were 5.62 and 5.57.
For `O=C(Nc1cnn(Cc2cccc(F)c2)c1)c1cc(-c2ccccn2)on1` [Compound 54], the pIC50 was 5.69 at human SCD1 and less than 4.35 against human SCD5.
Take `O=C(Nc1cnn(Cc2cnccc2C(F)(F)F)c1)c1cc(-c2ccncc2)on1` [Compound 202]: the negative-log IC50 (pIC50) on human SCD1 and on human SCD5 was less than 4.35 throughout.
With `CC(C)c1cc(C(=O)N2CC(c3ccccc3)C2)no1` [Compound 250], the pIC50 on human SCD1 and against human SCD5 was less than 4.35 throughout.
Consider `O=C(Nc1ccccc1)C1CCCN1C(=O)c1cc(-c2ccc3c(c2)OCO3)on1` (centres unmarked) [Compound 455], for which the negative-log IC50 (pIC50) against human SCD1 and on human SCD5 was less than 4.35 each time.
As for `N#Cc1ccc(CN(C(=O)c2cc(-c3ccccc3)on2)c2cnn(Cc3ccc(C#N)cc3)c2)cc1` [Compound 47], the negative logarithm of the IC50 (pIC50) against human SCD1 and on human SCD5 was less than 4.35 throughout.
As to `O=C(Nc1cnn(Cc2ccccc2)n1)c1cc(-c2ccccc2)on1` [Compound 52], the negative-log IC50 (pIC50) against human SCD1 and at human SCD5 was less than 4.35 throughout.
Consider `Cc1ncc(-c2cc(C(=O)Nc3cnn(Cc4cccc(F)c4)c3)no2)o1` [Compound 67, N-(1-(3-fluorobenzyl)-1H-pyrazol-4-yl)-5-(2-methyloxazol-5-yl)isoxazole-3-carboxamide], for which the pIC50 at human SCD1 was 6.00; on human SCD5 it was 5.10.
Turning to `O=C(Nc1ccccc1)C1CN(C(=O)c2cc(-c3ccccc3)on2)C1` [Compound 237], the negative logarithm of the IC50 (pIC50) against human SCD1 and against human SCD5 was less than 4.35 in each case.
Regarding `CC(C)(O)c1cc(C(=O)Nc2cnn(Cc3ccccc3)c2)on1` [Compound 152], the negative-log IC50 (pIC50) against human SCD1 and at human SCD5 was less than 4.35 each time.
Take `O=C(c1ccccc1)N1CCN(C(=O)c2cc(-c3ccc4c(c3)OCO4)on2)CC1` [Compound 281]: the negative-log IC50 (pIC50) against human SCD1 and against human SCD5 was less than 4.35 throughout.
As to `O=C(c1cc(-c2ccc3c(c2)OCO3)on1)N1CCC(c2ccccc2)CC1` [Compound 275, [5-(1,3-benzodioxol-5-yl)isoxazol-3-yl]-(4-phenyl-1-piperidyl)methanone], the pIC50 against human SCD1 is less than 4.35; against human SCD5, 5.95.
Taken in the same sequence, the figures for `O=C(Nc1cnn(Cc2ccccc2Cl)c1)c1cc(-c2cccc3cn(C4COC4)nc23)on1` [Compound 92] were less than 4.35 and less than 4.35.
Taken in the same sequence, the figures for `O=C(Nc1cnn(Cc2cccc(F)c2)c1)c1cc(C2COC2)on1` [Compound 139, N-(1-(3-fluorobenzyl)-1H-pyrazol-4-yl)-5-(oxetan-3-yl)isoxazole-3-carboxamide] were 6.13 and 5.16.
For `COc1ccc(Cn2cc(NC(=O)c3cc(-c4ccccc4)on3)cn2)cc1` [Compound 109] the same measures were less than 4.35 and less than 4.35.
Take `O=C(c1cc(-c2ccccc2C(F)(F)F)on1)N1CCC(c2ccccc2)C1` (centres unmarked) [Compound 346]: the negative-log IC50 (pIC50) is less than 4.35 against human SCD1 and 5.13 at human SCD5.
As to `N#Cc1cccc(-c2cc(C(=O)N3CCC(c4ccccc4)CC3)no2)c1` [Compound 317], the negative-log IC50 (pIC50) against human SCD1 and against human SCD5 was less than 4.35 in each case.
Regarding `O=C(Nc1cnn(Cc2ccccc2)c1)c1cc(-c2ccncc2)on1` [Compound 124, N-(1-benzyl-1H-pyrazol-4-yl)-5-(pyridin-4-yl)isoxazole-3-carboxamide], the pIC50 against human SCD1 was 5.24; against human SCD5, 5.15.
Taken in the same sequence, the figures for `O=C(c1cc(-c2ccccc2)on1)N1CC(Oc2ccccc2)C1` [Compound 213] were 6.31 and less than 4.35.
For `COc1ccc(C2CCCN2C(=O)c2cc(-c3ccccc3)on2)cc1` (centres unmarked) [Compound 377] the same measures were less than 4.35 and less than 4.35.
Taken in the same sequence, the figures for `O=C(Nc1cnn(Cc2cccc(F)c2)c1)c1cc(-c2ncccc2F)on1` [Compound 108, N-(1-(3-fluorobenzyl)-1H-pyrazol-4-yl)-5-(3-fluoropyridin-2-yl)isoxazole-3-carboxamide] were 5.92 and 5.74.
Take `O=C(Nc1cnn(CC2CCOCC2)c1)c1cc(-c2ccco2)on1` [Compound 31]: the negative logarithm of the IC50 (pIC50) on human SCD1 and on human SCD5 was less than 4.35 each time.
Turning to `O=C(c1cc(-c2ccco2)on1)N1CC(Oc2ccccc2)C1` [Compound 206, [5-(2-furyl)isoxazol-3-yl]-(3-phenoxyazetidin-1-yl)methanone], the pIC50 on human SCD1 was 6.55; on human SCD5 it was 5.85.
Taken in the same sequence, the figures for `COc1cc(F)ccc1C1CCCN1C(=O)c1cc(-c2ccc3c(c2)OCO3)on1` (centres unmarked) [Compound 430] were less than 4.35 and 4.52.
As for `CC(C)(c1ccccc1)n1cc(NC(=O)c2cc(-c3ccccc3)on2)cn1` [Compound 64], the pIC50 at human SCD1 and on human SCD5 was less than 4.35 each time.
As to `O=C(Nc1cnn(Cc2ccc(C(F)(F)F)cc2)c1)c1cc(-c2ccco2)on1` [Compound 16], the negative logarithm of the IC50 (pIC50) against human SCD1 and on human SCD5 was less than 4.35 each time.
Regarding `O=C(c1cc(-c2cnccn2)on1)N1CC(c2ccccc2)C1` [Compound 259, (3-phenylazetidin-1-yl)(5-(pyrazin-2-yl)isoxazol-3-yl)methanone], the negative logarithm of the IC50 (pIC50) was less than 4.35 against human SCD1 and 5.30 against human SCD5.
For the compound `C=C(C)c1cc(C(=O)N2CCC3(CCc4c(F)cccc4O3)CC2)no1` [Compound 324], the pIC50 against human SCD1 was less than 4.35; at human SCD5 it was 5.42.
Taken in the same sequence, the figures for `N#Cc1cccc(Cn2cc(NC(=O)c3cc(-c4ccccc4)on3)cn2)c1` [Compound 132] were less than 4.35 and less than 4.35.
For `O=C(Nc1cnn(Cc2ccccc2)c1)c1cc(-c2cnsc2)on1` [Compound 146] the same measures were 4.96 and less than 4.35.
`O=C(c1cc(-c2ccn3ncnc3c2)on1)N1CCC[C@H]1c1ccccc1` [Compound 432]: the pIC50 at human SCD1 is 4.40; against human SCD5, less than 4.35.
For `O=C(c1cc(-c2ccccc2)on1)N1CCN(c2ccccc2F)CC1` [Compound 284] the same measures were less than 4.35 and less than 4.35.
Regarding `O=C(Nc1cnn(Cc2cccc(F)c2)c1)c1cc(-c2ccccc2)on1` [Compound 53], the negative logarithm of the IC50 (pIC50) on human SCD1 is 7.15; at human SCD5 it was less than 4.35.
For `CNC(=O)c1cc(C(=O)N2CCC(c3ccccc3)C2)no1` (centres unmarked) [Compound 347] the same measures were 5.38 and 5.28.
For `O=C(c1cc(-c2ccc3c(c2)OCO3)on1)N1CC(Oc2ccccc2)C1` [Compound 208] the same measures were less than 4.35 and less than 4.35.
For `O=C(c1cc(-c2ccc3c(c2)OCO3)on1)N1CCc2ccccc2C1` [Compound 260] the same measures were less than 4.35 and less than 4.35.
Turning to `C=Cc1cc(C(=O)Nc2cnn(Cc3cccc(F)c3)c2)no1` [Compound 106, N-(1-(3-fluorobenzyl)-1H-pyrazol-4-yl)-5-vinylisoxazole-3-carboxamide], the results for the pIC50 on human SCD1 and against human SCD5 were 7.32 and 5.72, respectively.
For `O=C(Nc1cnn(CCCC(F)(F)F)c1)c1cc(-c2ccco2)on1` [Compound 34, 5-(2-furyl)-N-[1-(4,4,4-trifluorobutyl)pyrazol-4-yl]isoxazole-3-carboxamide] the same measures were less than 4.35 and 5.19.
For the compound `O=C(Nc1cnn(Cc2ccccc2)c1)c1cc(-c2ccc(F)cn2)on1` [Compound 137], the pIC50 at human SCD1 and on human SCD5 was less than 4.35 throughout.
With `C=C(C)c1cc(C(=O)Nc2cnn(Cc3ccccc3)c2)on1` [Compound 153], the figures for the pIC50 on human SCD1 and at human SCD5 were 5.05 and 5.15, respectively.
Taken in the same sequence, the figures for `O=C(c1cc(-c2ccncn2)on1)N1CC(c2ccccc2)C1` [Compound 257, (3-phenylazetidin-1-yl)(5-(pyrimidin-4-yl)isoxazol-3-yl)methanone] were 6.49 and 5.50.
Taken in the same sequence, the figures for `Cc1nnc(-c2cc(C(=O)Nc3cnn(Cc4cccc(F)c4)c3)no2)s1` [Compound 175] were less than 4.35 and less than 4.35.
